Measured values published in ChEMBL document CHEMBL4052763, “Discovery of dual Axl/VEGF-R2 inhibitors as potential anti-angiogenic and anti-metastatic drugs for cancer chemotherapy” (Bioorg Med Chem Lett, 2017).

Legend:
[1] = biological target: T1, Tyrosine-protein kinase receptor UFO (Homo sapiens, UniProt P30530); assay: Inhibition of Axl in human HeLa cells assessed as reduction in AKT phosphorylation at Ser 473 residues pre-incubated for 1 hr before preclustered anti-Axl antibody stimulation by Western blot analysis; format: cell-based
T1 sequence (P30530 whole entry): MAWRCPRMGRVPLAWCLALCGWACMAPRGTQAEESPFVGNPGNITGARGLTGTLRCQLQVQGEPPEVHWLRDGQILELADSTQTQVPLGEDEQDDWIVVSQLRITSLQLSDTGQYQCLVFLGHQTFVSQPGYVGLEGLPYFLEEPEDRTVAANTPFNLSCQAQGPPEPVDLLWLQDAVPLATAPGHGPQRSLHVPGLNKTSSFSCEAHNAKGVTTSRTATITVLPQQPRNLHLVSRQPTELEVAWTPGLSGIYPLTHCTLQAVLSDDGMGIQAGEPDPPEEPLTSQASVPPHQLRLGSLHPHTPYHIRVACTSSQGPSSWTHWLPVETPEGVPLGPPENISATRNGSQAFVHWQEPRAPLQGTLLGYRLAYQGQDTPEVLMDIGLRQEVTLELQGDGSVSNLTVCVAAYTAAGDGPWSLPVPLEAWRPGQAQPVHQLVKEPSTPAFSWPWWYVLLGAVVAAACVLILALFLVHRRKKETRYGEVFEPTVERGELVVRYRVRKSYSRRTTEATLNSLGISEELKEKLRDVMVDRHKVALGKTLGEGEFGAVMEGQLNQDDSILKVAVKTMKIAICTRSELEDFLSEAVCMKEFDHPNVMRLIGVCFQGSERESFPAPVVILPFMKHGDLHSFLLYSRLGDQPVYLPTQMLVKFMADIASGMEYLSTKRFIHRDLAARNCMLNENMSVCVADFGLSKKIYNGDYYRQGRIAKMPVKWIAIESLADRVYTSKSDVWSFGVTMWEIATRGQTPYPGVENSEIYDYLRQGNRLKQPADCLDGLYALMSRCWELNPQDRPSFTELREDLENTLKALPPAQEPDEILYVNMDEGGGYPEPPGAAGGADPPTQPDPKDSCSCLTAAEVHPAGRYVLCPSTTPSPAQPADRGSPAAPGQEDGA

[2] = biological target: Vascular endothelial growth factor receptor 2 (Homo sapiens, UniProt P35968); assay: Inhibition of VEGF stimulated VEGFR2 phosphorylation at […] residues in HUVEC preincubated for 1 hr followed by VEGF addition measured after 5 mins by Western blot analysis
Insulin receptor = Insulin receptor (Homo sapiens, UniProt P06213); assay: Inhibition of insulin stimulated INSR phosphorylation in human HeLa cells preincubated for 1 hr followed by insulin addition measured after 5 mins by Western blot analysis; format: cell-based
[3] = Clearance in iv dosed Sprague-Dawley rat; format: ADME, organism-based; conditions: in vivo
[4] = Volume of distribution at steady state in iv dosed Sprague-Dawley rat; format: ADME, organism-based; conditions: in vivo, read-out: Vdss
[5] = Half life in iv dosed Sprague-Dawley rat; format: ADME, organism-based; conditions: in vivo
CAKI-1 [6] = assay: Antitumor activity against human Caki1 cells xenografted model assessed as tumor growth inhibition at 80 mg/kg, po qd relative to control; format: functional; conditions: CAKI-1, po, read-out: TGI
MDA-MB-231 [7] = assay: Antitumor activity against human MDA-MB-231 cells xenografted in nu/nu mouse assessed as tumor growth inhibition at 80 mg/kg, qd after 21 days relative to control; format: functional; conditions: MDA-MB-231, 504 h, read-out: TGI
Mus musculus [8] = assay: Inhibition of fibroblast growth factor-induced neovascularization in mouse corneal micropocket at 80 mg/kg, qd relative to control; format: functional
[9] = biological target: T1, Tyrosine-protein kinase receptor UFO; assay: Inhibition of N-terminal GST-tagged human Axl (464 to 885 end residues) cytoplasmic domain expressed in baculovirus expression system using HS1 peptide as substrate after 40 mins in presence of ATP by fluorescence polarization assay
Mus musculus [10] = assay: Toxicity in nu/nu mouse xenografted with human MDA-MB-231 cells at 125 mg/kg, po bid after 21 days; format: organism-based; conditions: in vivo, 504 h
Mus musculus [11] = assay: Inhibition of fibroblast growth factor-induced neovascularization in mouse corneal micropocket at 50 mg/kg, bid relative to control; format: functional
MDA-MB-231 [12] = assay: Antitumor activity against human MDA-MB-231 cells xenografted in nu/nu mouse assessed as tumor growth delay at 125 mg/kg, po bid after 21 days relative to control; format: functional
MDA-MB-231 [13] = assay: Antitumor activity against human MDA-MB-231 cells xenografted in nu/nu mouse assessed as tumor growth inhibition at 85 mg/kg, po bid after 21 days relative to control; format: functional; conditions: MDA-MB-231, po, 504 h, read-out: TGI
Mus musculus [14] = assay: Inhibition of fibroblast growth factor-induced neovascularization in mouse corneal micropocket at 100 mg/kg, bid relative to control; format: functional
Mus musculus [15] = assay: Toxicity in nu/nu mouse xenografted with human MDA-MB-231 cells at 85 mg/kg, po bid after 21 days; format: organism-based; conditions: in vivo, 504 h
MDA-MB-231 [16] = assay: Antitumor activity against human MDA-MB-231 cells xenografted in nu/nu mouse assessed as tumor growth inhibition at 125 mg/kg, po bid after 21 days relative to control; format: functional; conditions: MDA-MB-231, po, 504 h, read-out: TGI
CAKI-1 [17] = assay: Antitumor activity against human Caki1 cells xenografted model assessed as tumor growth inhibition at 85 mg/kg, po bid relative to control; format: functional; conditions: CAKI-1, po, read-out: TGI
[18] = Aqueous solubility of the compound; format: physicochemical; conditions: buffer
[19] = Oral bioavailability in Sprague-Dawley rat; format: ADME, organism-based; conditions: in vivo

Chain of Vascular endothelial growth factor receptor 2 (P35968 whole entry): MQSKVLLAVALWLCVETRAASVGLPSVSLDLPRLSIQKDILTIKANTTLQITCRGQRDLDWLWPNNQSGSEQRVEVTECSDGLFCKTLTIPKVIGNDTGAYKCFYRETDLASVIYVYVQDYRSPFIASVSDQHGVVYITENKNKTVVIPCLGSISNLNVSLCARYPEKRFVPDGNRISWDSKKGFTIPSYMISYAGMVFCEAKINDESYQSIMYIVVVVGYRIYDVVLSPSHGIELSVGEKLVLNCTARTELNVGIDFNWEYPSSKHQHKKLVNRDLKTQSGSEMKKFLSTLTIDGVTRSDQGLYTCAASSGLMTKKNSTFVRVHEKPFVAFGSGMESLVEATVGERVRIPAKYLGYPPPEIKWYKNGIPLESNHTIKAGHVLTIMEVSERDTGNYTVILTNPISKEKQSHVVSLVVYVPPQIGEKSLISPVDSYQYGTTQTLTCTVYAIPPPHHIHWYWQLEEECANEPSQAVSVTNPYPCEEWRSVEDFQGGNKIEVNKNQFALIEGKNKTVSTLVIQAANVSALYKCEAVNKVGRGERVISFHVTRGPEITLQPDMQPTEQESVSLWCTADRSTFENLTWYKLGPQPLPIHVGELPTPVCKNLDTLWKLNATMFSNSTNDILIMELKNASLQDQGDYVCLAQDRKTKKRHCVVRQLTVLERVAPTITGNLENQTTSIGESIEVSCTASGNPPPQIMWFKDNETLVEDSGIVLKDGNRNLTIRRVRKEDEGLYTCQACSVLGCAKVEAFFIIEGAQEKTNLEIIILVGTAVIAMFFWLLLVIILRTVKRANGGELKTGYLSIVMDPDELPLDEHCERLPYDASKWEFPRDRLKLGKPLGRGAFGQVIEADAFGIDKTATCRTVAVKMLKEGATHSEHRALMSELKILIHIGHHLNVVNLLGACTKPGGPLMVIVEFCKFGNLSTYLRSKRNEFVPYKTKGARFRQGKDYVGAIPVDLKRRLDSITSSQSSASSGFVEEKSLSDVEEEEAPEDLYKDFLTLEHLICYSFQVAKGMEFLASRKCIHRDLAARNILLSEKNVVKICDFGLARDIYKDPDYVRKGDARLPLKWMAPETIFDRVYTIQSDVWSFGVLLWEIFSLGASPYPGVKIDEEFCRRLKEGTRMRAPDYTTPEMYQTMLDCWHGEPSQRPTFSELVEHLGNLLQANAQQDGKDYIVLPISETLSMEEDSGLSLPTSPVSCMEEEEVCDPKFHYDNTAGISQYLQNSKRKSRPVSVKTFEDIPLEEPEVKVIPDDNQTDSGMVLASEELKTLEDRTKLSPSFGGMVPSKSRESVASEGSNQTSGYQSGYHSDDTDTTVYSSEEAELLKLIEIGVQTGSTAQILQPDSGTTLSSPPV
Chain of Insulin receptor (P06213 28-758 limits assumed): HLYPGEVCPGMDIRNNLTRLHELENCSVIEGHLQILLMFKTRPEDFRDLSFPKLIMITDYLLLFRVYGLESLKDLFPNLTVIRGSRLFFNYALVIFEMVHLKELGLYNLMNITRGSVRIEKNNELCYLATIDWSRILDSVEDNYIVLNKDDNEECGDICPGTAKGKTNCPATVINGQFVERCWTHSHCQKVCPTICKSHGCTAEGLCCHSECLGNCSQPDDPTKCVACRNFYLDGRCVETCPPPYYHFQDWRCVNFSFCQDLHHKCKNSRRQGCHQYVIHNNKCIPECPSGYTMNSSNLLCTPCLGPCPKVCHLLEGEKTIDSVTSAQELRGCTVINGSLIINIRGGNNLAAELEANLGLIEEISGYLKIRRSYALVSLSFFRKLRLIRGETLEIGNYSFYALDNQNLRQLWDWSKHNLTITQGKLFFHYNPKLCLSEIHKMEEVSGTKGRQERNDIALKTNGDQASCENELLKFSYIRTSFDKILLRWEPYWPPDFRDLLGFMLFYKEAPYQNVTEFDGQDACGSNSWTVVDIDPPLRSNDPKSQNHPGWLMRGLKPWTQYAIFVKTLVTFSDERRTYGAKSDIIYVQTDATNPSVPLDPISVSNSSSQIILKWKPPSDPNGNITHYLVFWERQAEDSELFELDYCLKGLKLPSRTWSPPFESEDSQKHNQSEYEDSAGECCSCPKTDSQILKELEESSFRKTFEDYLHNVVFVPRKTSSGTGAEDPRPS
Chain of Insulin receptor (P06213 763-1382 limits assumed): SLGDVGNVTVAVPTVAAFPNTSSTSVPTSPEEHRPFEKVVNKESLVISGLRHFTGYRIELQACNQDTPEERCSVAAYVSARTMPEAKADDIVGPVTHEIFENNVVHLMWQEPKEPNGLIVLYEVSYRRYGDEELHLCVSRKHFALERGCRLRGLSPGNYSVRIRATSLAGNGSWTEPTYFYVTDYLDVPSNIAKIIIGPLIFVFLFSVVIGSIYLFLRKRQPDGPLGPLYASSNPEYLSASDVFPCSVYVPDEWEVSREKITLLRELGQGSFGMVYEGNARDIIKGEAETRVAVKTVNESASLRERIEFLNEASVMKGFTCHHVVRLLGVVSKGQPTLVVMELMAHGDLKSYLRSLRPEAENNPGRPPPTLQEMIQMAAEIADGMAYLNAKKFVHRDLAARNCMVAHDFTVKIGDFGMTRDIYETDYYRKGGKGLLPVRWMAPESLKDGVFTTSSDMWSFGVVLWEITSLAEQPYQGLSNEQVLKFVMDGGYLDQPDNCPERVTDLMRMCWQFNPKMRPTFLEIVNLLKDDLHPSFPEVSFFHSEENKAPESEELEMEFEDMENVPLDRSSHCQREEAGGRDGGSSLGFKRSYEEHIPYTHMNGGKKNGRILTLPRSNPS

| SMILES | EC50 [1] | EC50 [2] | EC50 (Insulin receptor) | also measured |
| --- | --- | --- | --- | --- |
| Nc1nc(Nc2ccc(N3CCN(C4CC5CCC4C5)CC3)cc2)nn1-c1ncnc2c1sc1ncccc12 (racemic) | 52 nM | 24 nM |  |  |
| COc1cc2ncnc(-n3nc(Nc4ccc(OCCN5CCCC5)c(Cl)c4)nc3N)c2cc1OC |  |  | 4170 nM |  |
| Cc1csc2c(-n3nc(Nc4ccc(N5CCN(C6CC7CCC6C7)CC5)c(F)c4)nc3N)ncnc12 (racemic) | 62 nM | 90 nM |  |  |
| Nc1nc(Nc2ccc(N3CCN(C4CC5CCC4C5)CC3)cc2)nn1-c1ncnc2ccc(F)cc12 (racemic) |  | 146 nM |  | clearance [3]: 44 mL/min/kg; Vd [4]: 7.9 L/kg; half-life [5]: 2.3 h |
| COc1cc2ncnc(-n3nc(Nc4ccc(N5CCN(C6CC7CCC6C7)CC5)c(Cl)c4)nc3N)c2cc1OC (configuration not stated) |  | 47 nM | > 10000 nM | clearance [3]: 117 mL/min/kg; Vd [4]: 27 L/kg; half-life [5]: 2.7 h |
| Cc1csc2c(-n3nc(Nc4ccc(N5CCN([C@@H]6C[C@H]7CC[C@@H]6C7)CC5)c(Cl)c4)nc3N)nc(Cl)nc12 | 216 nM |  |  |  |
| COc1cc2ncnc(-n3nc(Nc4ccc(C5CCN(C)CC5)cc4)nc3N)c2cc1OC | 16 nM | 14 nM | 1320 nM |  |
| Nc1nc(Nc2ccc(N3CCN(C4CC5CCC4C5)CC3)cc2)nn1-c1nccc2ccccc12 (racemic) |  |  |  | clearance [3]: 52 mL/min/kg; Vd [4]: 8.8 L/kg; half-life [5]: 2.3 h |
| Nc1nc(Nc2ccc(OCCN3CCCC3)c(F)c2)nn1-c1ccccn1 | 334 nM |  |  |  |
| Nc1nc(Nc2ccc(N3CCN(C4CC5CCC4C5)CC3)c(F)c2)nn1-c1ncnc2ccsc12 (racemic) | 20 nM |  |  |  |
| CCN(CC)CCNC(=O)c1c(C)[nH]c(/C=C2\C(=O)Nc3ccc(F)cc32)c1C [SUNITINIB] |  |  |  | inhibition in vivo at 80 mg/kg (CAKI-1 [6]): 85%; inhibition in vivo at 80 mg/kg (MDA-MB-231 [7]): 84%; inhibition in vivo at 80 mg/kg (Mus musculus [8]): 78% |
| Nc1nc(Nc2ccc(N3CCN(C4CC5CCC4C5)CC3)cc2)nn1-c1ncnc2ccc(Cl)cc12 (racemic) |  | 196 nM |  |  |
| Nc1nc(Nc2ccc(OCCN3CCCC3)cc2)nn1-c1ncnc2c1CCC2 |  |  | 1010 nM |  |
| COc1cc2ncnc(-n3nc(Nc4ccc(OC5CCCN(C)C5)cc4)nc3N)c2cc1OC (configuration not stated) | 52 nM | 4 nM | 1800 nM |  |
| Cc1nc(-n2nc(Nc3ccc(N4CCN(C5CC6CCC5C6)CC4)cc3)nc2N)c2ccccc2n1 (racemic) |  | 104 nM |  |  |
| Cc1csc2c(-n3nc(Nc4ccc(N5CCN(C6CC7CCC6C7)CC5)cc4)nc3N)nc(Cl)nc12 (racemic) |  | 65 nM |  | clearance [3]: 11.5 mL/min/kg; Vd [4]: 4.4 L/kg; half-life [5]: 4.9 h |
| COc1cc2ncnc(-n3nc(Nc4ccc(N5CCN(C)CC5)cc4)nc3N)c2cc1OC | 39 nM | 3 nM | 4580 nM |  |
| COc1cc2ncnc(-n3nc(Nc4ccc(N5CC[C@H](N(C)C)C5)cc4)nc3N)c2cc1OC | 193 nM | 19 nM | 4760 nM |  |
| Nc1nc(Nc2ccc(OCCN3CCCC3)cc2)nn1-c1ncnc2ccc(F)cc12 |  |  | 126 nM |  |
| CC(C)(C)c1cc2ncnc(-n3nc(Nc4ccc(N5CCN(C6CC7CCC6C7)CC5)c(Cl)c4)nc3N)c2s1 (racemic) | 84 nM | 80 nM |  |  |
| Nc1nc(Nc2ccc(N3CCN(C4CC5CCC4C5)CC3)c(Cl)c2)nn1-c1ncnc2sccc12 (racemic) | 85 nM | 160 nM |  |  |
| Nc1nc(Nc2ccc(OCCN3CCCC3)cc2)nn1-c1nc(Cl)nc2ccccc12 | 27 nM |  | 241 nM | IC50 [9]: 7 nM |
| COc1cc2ncnc(-n3nc(Nc4ccc(N5CCN(C6CCCCC6)CC5)c(F)c4)nc3N)c2cc1OC | 55 nM | 26 nM | 5030 nM |  |
| Cc1csc2c(-n3nc(Nc4ccc(N5CCN([C@H]6C[C@@H]7CC[C@H]6C7)CC5)c(Cl)c4)nc3N)nc(Cl)nc12 | 136 nM |  |  | Activity (Mus musculus [10]): Toxic; inhibition in vivo at 50 mg/kg (Mus musculus [11]): 50%; Activity (MDA-MB-231 [12]): 79%; inhibition in vivo at 85 mg/kg (MDA-MB-231 [13]): 69%; inhibition in vivo at 100 mg/kg (Mus musculus [14]): 73%; Activity (Mus musculus [15]): Non-Toxic; inhibition in vivo at 125 mg/kg (MDA-MB-231 [16]): 83%; inhibition in vivo at 85 mg/kg (CAKI-1 [17]): 80% |
| Nc1nc(Nc2ccc(OCCN3CCCC3)c(F)c2)nn1C(=O)c1ccc(N2CCOCC2)cc1 | 47 nM |  | 2750 nM | solubility [18]: Insoluble; bioavailability [19]: < 1% |
| Nc1nc(Nc2ccc(OCCN3CCCC3)cc2)nn1-c1ncnc2ccc(Cl)cc12 |  |  | 14 nM |  |
| Cc1nc(-n2nc(Nc3ccc(OCCN4CCCC4)cc3)nc2N)c2ccccc2n1 |  |  | 320 nM |  |
| Cc1csc2c(-n3nc(Nc4ccc(OCCN5CCCC5)cc4)nc3N)nc(Cl)nc12 |  |  | 582 nM |  |
| Nc1nc(Nc2ccc(OCCN3CCCC3)cc2)nn1-c1ncnc2c1sc1ccccc12 |  |  | 300 nM |  |
| Nc1nc(Nc2ccc(N3CCN(C4CC5CCC4C5)CC3)cc2)nn1-c1ncnc2ccsc12 (racemic) | 21 nM | 24 nM |  |  |
